Data set [1] can be described thus: Kinematic viscosity measurement of solvents. In kind it is physicochemical. Conditions: 25 ° C.
The nature of another data set: physchem. The note with it: dehydrated ethanol, 25 °C, organic solvent or mixture.
A short description of data set [2]: Solubility of antineoplastic drugs in biocompatible pharmaceutical solvents.
For data set [3] the following is noted: cited from earlier work.
The test system of data set [4] is subcutaneous transplantation of tumors. The note with it: for Survival of group after drug administration (mice alive): 11 mice at day 0.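 As to all read-outs here: nude mice carrying subcutaneous right axillary tumor cell grafts, tumor volume computed as ab^2/2, negative control given blank solvent intratumorally, animals checked daily.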
Procedure: After three generations of resuscitation, cells in logarithmic growth phase were digested and suspended in complete medium. The number of cells was calculated, with the number of cells expected to be over 3×10^7/ml. The right axillary part of nude mice was disinfected by alcohol. The cell suspension was injected subcutaneously with a dose of 0.15 ml. After injection, a round translucent liquid bubble bulged up. The state of the nude mice and the growth of tumors were observed every day after injection. […] The successful nude mice were randomly divided into four groups: 11 in the positive control group, 11 in the high dose group, 11 in the low dose group and 12 in the negative control group. After grouping, intravenous injection was administered in the positive control group, with the other groups administered different tested product or blank solvent by intratumoral injection.
The longest diameter a (mm) and the shortest diameter b (mm) of tumors were measured by electronic Vernier caliper. The tumor volume of nude mice was calculated by formula: TV=ab^2/2, and the relative tumor volume (RTV) was acquired as RTV=V t/Vo. Vo was the volume of tumors before injection and V t was used to measure the volume of tumors some days after first injection. […] The mice were killed 21 days after injection for ethical reasons.
[5] abbreviates: Medium Chain Triglycerides, 25 °C, oil or lipid.
Setting [6] is: N-N dimethylacetylamide, 25 °C, organic solvent or mixture.
[7] abbreviates: PEG-400, 25 °C, organic solvent or mixture.
The mark [8] stands for this setting: PEG-400, 110 °C, organic solvent or mixture.
Where [9] appears, read: Tween-80, 25 °C, organic solvent or mixture.
The mark [10] stands for this setting: glycerin, 25 °C, organic solvent or mixture.
The mark [11] stands for this setting: soybean oil, 25 °C, oil or lipid.
The mark [12] stands for this setting: PEG-300, 25 °C, organic solvent or mixture.

Converted amounts (≈) assume the structure as drawn. Read-outs that look alike come from different tables or passages of the source.

As to `CCO` [Dehydrated ethanol], the Kinematic viscosity measurement in data set [1] was 1.41 mm^2/s.
One may read the solubility as the dissolved amount per volume that the medium holds. Take `CC(=O)O[C@@]12CO[C@@H]1C[C@H](O)[C@@]1(C)C(=O)[C@H](O)C3=C(C)[C@@H](OC(=O)[C@H](O)[C@@H](NC(=O)OC(C)(C)C)c4ccccc4)C[C@@](O)([C@@H](OC(=O)c4ccccc4)[C@H]21)C3(C)C` [Docetaxel]: the solubility is 118000 to 126000 µg/mL (≈ 147 to 156 mM) in the data set “physchem”; under 10000 µg/mL in data set [2] (setting [5]); 30000 to 35000 µg/mL (≈ 37.1 to 43.3 mM) in data set [2] (Medium Chain Triglycerides, 105 °C, oil or lipid); over 50000 µg/mL in data set [2] (setting [6]); under 10000 µg/mL in data set [2] (setting [7]); over 40000 µg/mL in data set [2] (setting [8]). Further, the solubility in data set [2] (setting [9]) is under 40000 µg/mL; in data set [2] (Tween-80, 120 °C, organic solvent or mixture), over 40000 µg/mL; in data set [2] (setting [10]), under 1000 µg/mL; in data set [2] (setting [11]), under 10000 µg/mL; in data set [2] (soybean oil, 140 °C, oil or lipid), 12500 to 15000 µg/mL (≈ 15.5 to 18.6 mM).
`OCC(O)CO` [Glycerol]: the Kinematic viscosity measurement in data set [1] amounted to 908.8 mm^2/s.
On to `CC[C@@]1(O)C(=O)OCc2c1cc1n(c2=O)Cc2cc3cc(O)ccc3nc2-1` [Hydroxycamptothecine], for which the solubility in “physchem” was under 1000 µg/mL; in data set [2] (setting [5]), under 1000 µg/mL; in data set [2] (setting [6]), about 71400 µg/mL (≈ 196 mM); in data set [2] (setting [12]) it was under 10000 µg/mL; in data set [2] (PEG-300, 90 °C, organic solvent or mixture), over 10000 µg/mL; in data set [2] (setting [9]), under 1000 µg/mL. In addition, the solubility in data set [2] (setting [10]) is under 1000 µg/mL.
As to `CC(=O)O[C@H]1C(=O)[C@@]2(C)[C@H]([C@H](OC(=O)c3ccccc3)[C@]3(O)C[C@H](OC(=O)[C@H](O)[C@@H](NC(=O)c4ccccc4)c4ccccc4)C(C)=C1C3(C)C)[C@]1(OC(C)=O)CO[C@@H]1C[C@@H]2O` [Paclitaxel], the solubility in the data set “physchem” is over 6000 µg/mL; in data set [2] (setting [5]), under 6000 µg/mL; in data set [2] (Medium Chain Triglycerides, 120 °C, oil or lipid), over 6000 µg/mL; in data set [2] (setting [6]), over 50000 µg/mL; in data set [2] (setting [7]), under 40000 µg/mL; in data set [2] (setting [8]), over 40000 µg/mL. The solubility was under 6000 µg/mL in data set [2] (setting [9]); over 6000 µg/mL in data set [2] (Tween-80, 110 °C, organic solvent or mixture); under 1000 µg/mL in data set [2] (setting [10]); under 6000 µg/mL in data set [2] (setting [11]); over 6000 µg/mL in data set [2] (soybean oil, 145 °C, oil or lipid). For the same compound, the “intravenous LD50” value in data set [3] (mice) is listed as 12 mg/kg.
In the case of `COc1cc([C@@H]2c3cc4c(cc3[C@@H](O[C@@H]3O[C@@H]5CO[C@@H](c6cccs6)O[C@H]5[C@H](O)[C@H]3O)[C@H]3COC(=O)[C@H]23)OCO4)cc(OC)c1O` [Teniposide], the solubility is under 130 µg/mL in “physchem”; under 200 µg/mL in data set [2] (setting [5]); under 200 µg/mL in data set [2] (Medium Chain Triglycerides, 200 °C, oil or lipid); over 105000 µg/mL in data set [2] (setting [6]); under 10000 µg/mL in data set [2] (setting [12]); over 50000 µg/mL in data set [2] (PEG-300, 140 °C, organic solvent or mixture). Besides, the solubility is under 1700 µg/mL in data set [2] (setting [9]) and under 1000 µg/mL in data set [2] (setting [10]).
For `COc1cc([C@@H]2c3cc4c(cc3[C@@H](O[C@@H]3O[C@@H]5CO[C@@H](C)O[C@H]5[C@H](O)[C@H]3O)[C@H]3COC(=O)[C@H]23)OCO4)cc(OC)c1O` [etoposide], the “30% ST, LDG/PCG” value in data set [4] (30% survival time, low dose group (intratumoral) to positive control group (intravenous)) is listed as 200% (18/9 = 2). The “Average Tumor Volume V3” value in data set [4] (High dosage (intratumoral, 55 mg/kg), 3 days after first injection) is reported as 268.5 mm^3. Also, in data set [4] (High dosage (intratumoral, 55 mg/kg), 6 days after first injection), the “Average Tumor Volume V6” value came out at 364.2 mm^3. For the same compound, the “HV6/NV6, tumor volume relative to negative control” value in data set [4] (High dosage (intratumoral, 55 mg/kg), 6 days after injection) was “HV6/NV6 = 90.2%”. In addition, the “Average Tumor Volume V9” value in data set [4] (High dosage (intratumoral, 55 mg/kg), 9 days after first injection) came out at 472.5 mm^3. Further, the “Average Tumor Volume V11” value in data set [4] (High dosage (intratumoral, 55 mg/kg), 11 days after first injection) was found to be 384.0 mm^3. For the same compound, the “Average Tumor Volume V12” value in data set [4] (High dosage (intratumoral, 55 mg/kg), 12 days after first injection) is 276.3 mm^3. The “HV12/NV, tumor volume relative to negative control” value in data set [4] (High dosage (intratumoral, 55 mg/kg), 12 days after injection) is “HV12/NV = 38.0%”. Further, the “Average Tumor Volume V0” value in data set [4] (High dosage (intratumoral, 55 mg/kg), before injection) turned out to be 174.4 mm^3. Further, the “Survival of group after drug administration (mice alive)” value (“Survival of group” below) in data set [4] (High dosage intratumoral, Day 6) stood at 11; in data set [4] (High dosage intratumoral, Day 9), 11; in data set [4] (High dosage intratumoral, Day 11), 11; in data set [4] (High dosage intratumoral, Day 12) it was 2; in data set [4] (High dosage intratumoral, Day 15), 0; in data set [4] (IV. group, Day 6), 11. The “Survival of group” value is recorded as 9 in data set [4] (IV. group, Day 9); 2 in data set [4] (IV. group, Day 11); 0 in data set [4] (IV. group, Day 12); 11 in data set [4] (Low dosage intratumoral, Day 6); 11 in data set [4] (Low dosage intratumoral, Day 9); 11 in data set [4] (Low dosage intratumoral, Day 11). The “Survival of group” value in data set [4] (Low dosage intratumoral, Day 12) stood at 11; in data set [4] (Low dosage intratumoral, Day 15), 6; in data set [4] (Low dosage intratumoral, Day 18) it was 4; in data set [4] (Low dosage intratumoral, Day 19), 3; in data set [4] (Low dosage intratumoral, Day 20) it was 3. Also, the MST in data set [4] (intravenous group (positive control)) turned out to be 9 days; in data set [4] (low dosage group, intratumoral injection) it was 15 days. Besides, the “outcome of local intratumor injection, in words” value in data set [4] (low dosage group) is “superior to the intravenous injection and the negative control group”. In addition, in data set [4] (low dosage group (11 mice), 20 days after injection), the mice surviving result was “three”. Besides, the mice still alive entry in data set [4] (low dosage group (11 mice), 21 days after first injection) is on record as “three”. The “MST, HDG/PCG” value in data set [4] (median survival time, high dose group (intratumoral) to positive control group (intravenous)) was 122% (11/9 = 1.22). Moreover, in data set [4] (twelve (12) days after injection, intratumoral injection, low dose group), the “LV12/NV (tumor volume, low dose group to negative control group)” value worked out at 49.3%. Besides, in data set [3], the “Intravenous LD50 of the mice” value is reported as “Intravenous LD50 of the mice: 15 mg/kg”.

Source of the values: patent US11439586B2, “Intratumour injection formulation” (US Nano Food & Drug INC, priority 2018, dated 2022).
